Measured values reported in patent publication US20060223876A1, “Indoloquinone Tumor Radiation Sensitization” (priority 2005, published 2006).
Read-outs that look alike come from different tables or passages of the source.

Columns and labels:
[1] = tested on: U-87 human glioblastoma cells
Procedure: U-87 human glioblastoma cells (American Type Culture Collection) were maintained in alpha MEM medium (Sigma) with 10% fetal bovine serum (Atlanta Biologicals). A U-87 cell suspension was injected subcutaneously into the right hind limb (5×10^5 cells in 100 μl PBS) of athymic NCR NUM mice (Taconic Farms) and allowed to grow to a hypoxic volume of ˜550 mm^3 before treatment. Tumors were treated with EO9 and a fractionated radiation therapy schedule to test the hypothesis that EO9 would sensitize tumor cells to radiation therapy. EO9 or vehicle was administered 30 minutes after each radiation therapy fraction on day 1, 2, and 3. The study used 4 treatment groups: vehicle (DMSO), radiation therapy alone (3 days×7.5 Gy), EO9 (3 days×2 mg/kg), and EO9 +radiation therapy (3 days×7.5 Gy×2 mg/kg). EO9 was administered locally by intra-tumoral injection to achieve optimal delivery.
Irradiations were performed on anesthetized mice using an X-ray machine (Pantak) operating at 250 kV, 10 mA, with a 2-mm aluminum filtration. The effective photon energy was 90 keV. Mice were anesthetized with a combination of Ketamine and Acepromazine at a concentration of 75 mg/kg and 0.30 mg/kg respectively. Each mouse was confined in a lead casing with its tumor-bearing leg extended through an opening on the side to allow the tumor to be irradiated locally.
Mixed-effects regression was used to model the base-10 logarithm of tumor volume as a function of time and treatment (tumor growth analyses). The log-transformed outcome was used because tumors of this size grow approximately exponentially, and therefore the logarithm of the tumor volume is approximately linear over time. This approach appropriately handles unbalanced data, such as a different number of measurements for different animals, and takes into account the correlation of each animal's measurements over time. These analyses were carried out with SAS 8.2 (SAS Institute Inc., Cary, N.C., 1999-2001).

[2] = tested on: U-87 human glioblastoma cells; assay: Long term study: EO9 and radiation therapy two non-consecutive days a week for 3 weeks, U-87 tumor xenograft growth; assay type: in vivo, athymic NCR NUM mice; conditions: for % Δ: average rate of increase of tumor volume / T2x: average doubling time of tumor volume: 2 days a week for 3 weeks
Procedure: The effective photon energy was 90 keV.
A protocol was investigated where EO9 and radiation therapy were administered over a longer period of time. In this study, EO9 or radiation therapy was delivered alone or in combination on two non-consecutive days a week for 3 weeks. Six groups received vehicle alone (DMSO), vehicle 30 minutes before radiation therapy (2 days×7.5 Gy), vehicle 30 minutes after radiation therapy (2 days×7.5 Gy), E09 only (2 days×3 mg/kg), EO9 […], and EO9 30 minutes after radiation therapy.

[3] = EO9 + radiation therapy (3 days x 7.5 Gy x 2 mg/kg), EO9 30 minutes after each fraction
[4] = EO9 3 mg/kg 30 minutes after radiation therapy (7.5 Gy)
[5] = EO9 3 mg/kg before radiation therapy (7.5 Gy)
[6] = EO9 only, 3 mg/kg intra-tumoral

Cn1c(/C=C/CO)c(CO)c2c1C(=O)C=C(N1CC1)C2=O [EO9, 3-hydroxymethyl-5-aziridinyl-1-methyl-2-(1 H-indole-4,7-dione)-prop-β-en-α-ol]
nature of the combination effect of EO9 and radiation therapy ([1]; EO9 + radiation therapy): additive
Estimated Time (Days) for tumors to reach 2000 mm^3 [1, 3]: 20.8 days
T2x: average doubling time of tumor volume [1, 3]: 11.7 days
% Δ (95% CI): average rate of increase of tumor volume ([1]; EO9 + radiation therapy (3 days x 7.5 Gy x 2 mg/kg), EO9 intra-tumoral 30 minutes after each fraction): 6 (4, 8) % daily increase
increase of tumor doubling time vs. control ([1]; EO9 alone, 3 days x 2 mg/kg): 1.4 days
Estimated Time (Days) for tumors to reach 2000 mm^3 ([1]; EO9 alone, 3 days x 2 mg/kg intra-tumoral): 8.6 days
% Δ (95% CI): average rate of increase of tumor volume ([1]; EO9 alone, 3 days x 2 mg/kg intra-tumoral, tumors ~550 mm^3): 16 (14, 19) % daily increase
rate of tumor growth compared with the other groups ([1]; EO9 and radiation therapy): slowest rate of tumor growth
increase of mean tumor doubling time vs. control ([1]; combination of EO9 and radiation therapy): 8.5 days
% Δ: average rate of increase of tumor volume [2, 4]: 8 % daily increase
T2x: average doubling time of tumor volume [2, 4]: 9.1 days
% Δ: average rate of increase of tumor volume [2, 5]: 4 % daily increase
T2x: average doubling time of tumor volume [2, 5]: 17.3 days
effectiveness of dosing schedule ([2]; EO9 administered before radiation therapy): most effective dosing schedule
% Δ: average rate of increase of tumor volume [2, 6]: 12 % daily increase
T2x: average doubling time of tumor volume [2, 6]: 6.1 days
rate of tumor volume growth compared with the other groups ([2]; groups receiving EO9 before or after radiation therapy combined into a single group (FIG. 8)): slowest rate of tumor volume growth
